Experimental data from patent US20140011799A1 (Bristol-Myers Squibb Company, priority 2012, published 2014).
Read-outs that look alike come from different tables or passages of the source.

Legend:
[1] = target: T1, Endothelial lipase (EL) (Homo sapiens, UniProt Q9Y5X9); assay: Endothelial lipase (EL) enzymatic assay, fluorescent substrate A10070 in DMPG vesicles; format: biochemical; conditions: compound preincubated 30 min at 37° C
T1 construct: HT-1080 cells that were transformed using RAGE technology (Athersys) to overexpress endogenous EL; endogenous in cells; conditioned medium used
T1 sequence (Q9Y5X9 21-500): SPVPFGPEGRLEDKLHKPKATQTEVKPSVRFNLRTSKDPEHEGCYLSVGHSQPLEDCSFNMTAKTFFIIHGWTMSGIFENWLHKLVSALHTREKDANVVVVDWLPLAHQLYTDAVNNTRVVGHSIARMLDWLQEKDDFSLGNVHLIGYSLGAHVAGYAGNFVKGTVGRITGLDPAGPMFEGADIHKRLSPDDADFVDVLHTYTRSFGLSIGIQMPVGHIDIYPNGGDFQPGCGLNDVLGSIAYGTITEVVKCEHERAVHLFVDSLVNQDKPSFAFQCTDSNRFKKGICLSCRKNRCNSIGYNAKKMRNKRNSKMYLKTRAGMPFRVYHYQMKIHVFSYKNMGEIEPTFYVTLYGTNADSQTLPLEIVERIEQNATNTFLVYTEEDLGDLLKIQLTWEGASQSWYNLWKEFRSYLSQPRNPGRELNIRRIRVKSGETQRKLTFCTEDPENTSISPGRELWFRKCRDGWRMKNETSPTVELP
Procedure, shortened: (§1)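 Vesicles prepared: A10070 dried with DMPG, resuspended in HEPES pH 8.0/NaCl/EDTA, sonicated on ice. Enzyme incubated with compound 30 min at 37° C. Reaction started with 1:10 diluted vesicles. Fluorescence (490/530 nm) followed 60 min; slope from 300–900 secs gives rate.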

[2] = target: T2, hepatic lipase (HL) (Homo sapiens, UniProt P11150); assay: Hepatic lipase (HL) enzymatic assay, fluorescent substrate A10070 in DMPG vesicles; format: biochemical; conditions: compound preincubated 30 min at 37° C
T2 construct: made in house; host or cells: COS cells (conditioned medium, partially purified)
T2 sequence (P11150 23-499): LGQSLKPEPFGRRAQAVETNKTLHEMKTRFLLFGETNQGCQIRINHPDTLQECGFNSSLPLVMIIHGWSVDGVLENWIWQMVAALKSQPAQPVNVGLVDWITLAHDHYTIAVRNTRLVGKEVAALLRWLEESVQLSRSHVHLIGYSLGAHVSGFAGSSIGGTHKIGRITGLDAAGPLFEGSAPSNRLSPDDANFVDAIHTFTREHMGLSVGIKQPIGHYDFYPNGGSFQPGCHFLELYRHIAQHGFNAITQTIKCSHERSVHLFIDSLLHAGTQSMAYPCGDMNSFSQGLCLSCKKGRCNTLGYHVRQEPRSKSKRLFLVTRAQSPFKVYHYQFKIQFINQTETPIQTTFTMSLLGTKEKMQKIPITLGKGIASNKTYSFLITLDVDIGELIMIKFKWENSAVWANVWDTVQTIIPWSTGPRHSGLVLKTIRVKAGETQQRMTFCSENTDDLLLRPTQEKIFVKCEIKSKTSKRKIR
Procedure, shortened: as §1

[3] = EL from conditioned media of HT-1080 cells, read-out: EL IC50
[4] = HL partially purified from conditioned media of COS cells, read-out: HL IC50

## NCCS(=O)(=O)C(c1nnc(CC2SC(=O)NC2=O)o1)c1nc2ccc(-c3ccccc3)cc2s1 (stereo not shown) [Example 184, 5-((5-(((2-aminoethyl)sulfonyl)(6-phenyl-1,3-benzothiazol-2-yl)methyl)-1,3,4-oxadiazol-2-yl)methyl)-1,3-thiazolidine-2,4-dione]
[1]; [3]
  IC50: < 10 nM
[2]; [4]
  IC50: < 10 nM

## NCCS(=O)(=O)C(c1nnc(CC2SC(=O)NC2=O)o1)c1nc2ccc(-c3ccc(C(=O)N4CCOCC4)cc3)cc2s1 (stereo not shown) [Example 185, 5-{[5-([(2-aminoethyl)sulfonyl]{6-[4-(4-morpholinylcarbonyl)phenyl]-1,3-benzothiazol-2-yl}methyl)-1,3,4-oxadiazol-2-yl]methyl}-1,3-thiazolidine-2,4-dione]
[1]; [3]
  IC50: < 10 nM
[2]; [4]
  IC50: 70 nM

## NCCS(=O)(=O)C(c1nnc(CC2SC(=O)NC2=O)o1)c1nc2cc(F)c(-c3ccccc3)cc2s1 (stereo not shown) [Example 186, 5-((5-(((2-aminoethyl)sulfonyl)(5-fluoro-6-phenyl-1,3-benzothiazol-2-yl)methyl)-1,3,4-oxadiazol-2-yl)methyl)-1,3-thiazolidine-2,4-dione]
[1]; [3]
  IC50: < 10 nM
[2]; [4]
  IC50: 49 nM

## NCCS(=O)(=O)C(c1nnc(CNS(N)(=O)=O)o1)c1nc2ccc(-c3ccccc3)cc2s1 (stereo not shown) [Example 187, N-[(5-{[(2-aminoethyl)sulfonyl](6-phenyl-1,3-benzothiazol-2-yl)methyl}-1,3,4-oxadiazol-2-yl)methyl] sulfuric diamide]
[1]; [3]
  IC50: < 10 nM
[2]; [4]
  IC50: 12 nM

## NS(=O)(=O)NCc1nnc(C(c2nc3ccc(C(=O)N4CCOCC4)cc3s2)S(=O)(=O)Cc2ccccc2)o1 (stereo not shown) [Example 189, N-((5-((Benzylsulfonyl)(6-(4-morpholinylcarbonyl)-1,3-benzothiazol-2-yl)methyl)-1,3,4-oxadiazol-2-yl)methyl)sulfamide]
[1]; [3]
  IC50: 13 nM
[2]; [4]
  IC50: 2370 nM

## CS(=O)(=O)C(c1nnc(CC2SC(=O)NC2=O)o1)c1nc2ccc(C#N)cc2s1 (stereo not shown) [Example 190, 2-((5-((2,4-Dioxo-1,3-thiazolidin-5-yl)methyl)-1,3,4-oxadiazol-2-yl)(methylsulfonyl)methyl)-1,3-benzothiazole-6-carbonitrile]
[1]; [3]
  IC50: < 10 nM
[2]; [4]
  IC50: 418 nM

## NS(=O)(=O)NCc1nnc(C(c2nc3ccc(-c4cccc(C(=O)O)c4)cc3s2)S(=O)(=O)CCC(F)(F)F)o1 (stereo not shown) [Example 191, 3-(2-((5-((Sulfamoylamino)methyl)-1,3,4-oxadiazol-2-yl)((3,3,3-trifluoropropyl)sulfonyl)methyl)-1,3-benzothiazol-6-yl)benzoic acid]
[1]; [3]
  IC50: 15 nM
[2]; [4]
  IC50: 2670 nM

## CC1(O)CN(C(=O)c2cccc(-c3ccc4nc(C(c5nnc(CNS(N)(=O)=O)o5)S(=O)(=O)CCC(F)(F)F)sc4c3)c2)C1 (stereo not shown) [Example 192, N-((5-((6-(3-((3-Hydroxy-3-methyl-1-azetidinyl)carbonyl)phenyl)-1,3-benzothiazol-2-yl)((3,3,3-trifluoropropyl)sulfonyl)methyl)-1,3,4-oxadiazol-2-yl)methyl)sulfamide]
[1]; [3]
  IC50: < 10 nM
[2]; [4]
  IC50: 81 nM

## CN1CCN(C(=O)c2cccc(-c3ccc4nc(C(c5nnc(CNS(N)(=O)=O)o5)S(C)(=O)=O)sc4c3)c2)CC1 (stereo not shown) [Example 193, N-((5-((6-(3-((4-methyl-1-piperazinyl)carbonyl)phenyl)-1,3-benzothiazol-2-yl)(methylsulfonyl)methyl)-1,3,4-oxadiazol-2-yl)methyl)sulfamide]
[1]; [3]
  IC50: < 10 nM
[2]; [4]
  IC50: 105 nM

## NS(=O)(=O)NCc1nnc(C(c2nc3ccc(-c4cccc(C(=O)N5CCC(=O)CC5)c4)cc3s2)S(=O)(=O)CCC(F)(F)F)o1 (stereo not shown) [Example 194, N-((5-((6-(3-((4-oxo-1-piperidinyl)carbonyl)phenyl)-1,3-benzothiazol-2-yl)((3,3,3-trifluoropropyl)sulfonyl)methyl)-1,3,4-oxadiazol-2-yl)methyl) sulfamide]
[1]; EL IC50, EL from conditioned media of HT-1080 cells
  IC50: < 10 nM
[2]; HL IC50, HL partially purified from conditioned media of COS cells
  IC50: 171 nM

## NS(=O)(=O)NCc1nnc(C(c2nc3ccc(-c4cccc(C(=O)NCC(F)(F)F)c4)cc3s2)S(=O)(=O)CCC(F)(F)F)o1 (stereo not shown) [Example 195, 3-(2-((5-((sulfamoylamino)methyl)-1,3,4-oxadiazol-2-yl)((3,3,3-trifluoropropyl)sulfonyl)methyl)-1,3-benzothiazol-6-yl)-N-(2,2,2-trifluoroethyl)benzamide]
[1]; [3]
  IC50: < 10 nM
[2]; [4]
  IC50: 336 nM

## NS(=O)(=O)NCc1nnc(C(c2nc3ccc(-c4cccc(C(=O)NCCO)c4)cc3s2)S(=O)(=O)CCC(F)(F)F)o1 (stereo not shown) [Example 196, N-(2-hydroxyethyl)-3-(2-((5-((sulfamoylamino)methyl)-1,3,4-oxadiazol-2-yl)((3,3,3-trifluoropropyl)sulfonyl)methyl)-1,3-benzothiazol-6-yl)benzamide]
[1]; [3]
  IC50: < 10 nM
[2]; [4]
  IC50: 209 nM

## CN1CCN(C(=O)c2cccc(-c3ccc4nc(C(c5nnc(CNS(N)(=O)=O)o5)S(=O)(=O)CC5CC5)sc4c3)c2)CC1 (stereo not shown) [Example 197, N-((5-(((cyclopropylmethyl)sulfonyl)(6-(3-((4-methyl-1-piperazinyl)carbonyl)phenyl)-1,3-benzothiazol-2-yl)methyl)-1,3,4-oxadiazol-2-yl)methyl)sulfamide]
[1]; [3]
  IC50: < 10 nM
[2]; [4]
  IC50: 2570 nM

## CN1CCN(C(=O)c2cccc(-c3ccc4nc(C(c5nnc(CNS(N)(=O)=O)o5)S(=O)(=O)Cc5ccccc5)sc4c3)c2)CC1 (stereo not shown) [Example 198, N-((5-((benzylsulfonyl)(6-(3-((4-methyl-1-piperazinyl)carbonyl)phenyl)-1,3-benzothiazol-2-yl)methyl)-1,3,4-oxadiazol-2-yl)methyl)sulfamide]
[1]; [3]
  IC50: < 10 nM
[2]; [4]
  IC50: 9180 nM

## COCCNC(=O)c1cccc(-c2ccc3nc(C(c4nnc(CNS(N)(=O)=O)o4)S(=O)(=O)CCC(F)(F)F)sc3c2)c1 (stereo not shown) [Example 199, N-(2-methoxyethyl)-3-(2-((5-((sulfamoylamino)methyl)-1,3,4-oxadiazol-2-yl)((3,3,3-trifluoropropyl)sulfonyl)methyl)-1,3-benzothiazol-6-yl)benzamide]
[1]; [3]
  IC50: < 10 nM
[2]; [4]
  IC50: 1020 nM

## COCCS(=O)(=O)C(c1nnc(CNS(N)(=O)=O)o1)c1nc2ccc(-c3cccc(C(=O)N4CCN(C)CC4)c3)cc2s1 (stereo not shown) [Example 200, N-((5-(((2-methoxyethyl)sulfonyl)(6-(3-((4-methyl-1-piperazinyl)carbonyl)phenyl)-1,3-benzothiazol-2-yl)methyl)-1,3,4-oxadiazol-2-yl)methyl)sulfamide]
[1]; [3]
  IC50: < 10 nM
[2]; [4]
  IC50: 201 nM

## CN1CCN(C(=O)c2cccc(-c3ccc4nc(C(c5nnc(CNS(N)(=O)=O)o5)S(=O)(=O)CCC(F)(F)F)sc4c3)c2)CC1 (stereo not shown) [Example 201, N-((5-((6-(3-((4-methyl-1-piperazinyl)carbonyl)phenyl)-1,3-benzothiazol-2-yl)((3,3,3-trifluoropropyl)sulfonyl)methyl)-1,3,4-oxadiazol-2-yl)methyl)sulfamide]
[1]; [3]
  IC50: < 10 nM
[2]; [4]
  IC50: 365 nM

## CS(=O)(=O)C(c1nnc(CNS(N)(=O)=O)o1)c1nc2ccc(-c3cccc(C(=O)N4CC(F)(F)C4)c3)cc2s1 (stereo not shown) [Example 202, N-((5-((6-(3-((3,3-difluoro-1-azetidinyl)carbonyl)phenyl)-1,3-benzothiazol-2-yl)(methylsulfonyl)methyl)-1,3,4-oxadiazol-2-yl)methyl)sulfamide]
[1]; [3]
  IC50: < 10 nM
[2]; [4]
  IC50: 35 nM

## CC(C)(C)OC(=O)c1cccc(-c2ccc3nc(C(c4nnc(CC5(C)NC(=O)NC5=O)o4)S(C)(=O)=O)sc3c2)c1 (stereo not shown) [Example 203, tert-butyl 3-{2-[methanesulfonyl ({5-[(4-methyl-2,5-dioxoimidazolidin-4-yl)methyl]-1,3,4-oxadiazol-2-yl})methyl]-1,3-benzothiazol-6-yl}benzoate]
[1]; [3]
  IC50: 33 nM
[2]; [4]
  IC50: 2 nM

## CC1(O)CN(C(=O)c2cccc(-c3ccc4nc(C(c5nnc(CC6(C)NC(=O)NC6=O)o5)S(C)(=O)=O)sc4c3)c2)C1 (stereo not shown) [Example 204, 5-{[5-({6-[3-(3-hydroxy-3-methylazetidine-1-carbonyl)phenyl]-1,3-benzothiazol-2-yl} (methanesulfonyl)methyl)-1,3,4-oxadiazol-2-yl]methyl}-5-methyl-imidazolidine-2,4-dione]
[1]; [3]
  IC50: 17 nM
[2]; [4]
  IC50: 783 nM
